Results published in patent US10835507B2, “Treatment of muscular disorders with combinations of RXR agonists and thyroid hormones” (Io Therapeutics, Inc., priority 2016, dated 2020).
Entries after “also recorded” stand apart in the source; their conditions may differ.

Key:
[1] = test system: mouse oligodendrocyte progenitor cells (OPCs); assay: Mouse oligodendrocyte progenitor cell differentiation, 5-day treatment, Example 5; type: cell-based; details: 96-well plates, plp-EGFP mouse OPCs
Experimental: OPCs were derived from plp-EGFP expressing mice.
Therapeutic agents were tested in 96-well plates (6 wells per concentration). […] All media contained 0.1% DMSO. At the end of the 5-day treatment, cells were imaged on Cellomics in two channels and algorithms were used to count nuclei and EGFP+ oligodendrocytes.

[2] = test system: spontaneously hypertensive rats (SHRs); assay: Cardiac hypertrophy in spontaneously hypertensive rats; type: in vivo, rat; details: present-tense example; for inhibition of the increase in cardiac mass and wall thickness: SHRs at 12 weeks of age, 10 mg to 100 mg/kg
Experimental: Four weeks old SHRs and control rats are randomized and put into groups of 5-10 rats/group. […] Transthoratic echocardiographs are performed to determine cardiac weights and measurements.
The animals are sacrificed at 16 weeks of age to determine cardiac hypertrophy. Hypertrophy is determined by the animal's left ventricle weight to body weight ratio. The myocyte cross-sectional area is also determined. Approximately 10 mg to about 30 mg of the animal's left ventricle is homogenized and subject to sodium dodecyl sulfate polyacrylamide gel electrophoresis (SDS-PAGE) and immunoblot analysis.

[3] = target: T1, RXRα (Homo sapiens, UniProt P19793); details: RXR receptors vs RAR receptors
T1 sequence (P19793 1-462): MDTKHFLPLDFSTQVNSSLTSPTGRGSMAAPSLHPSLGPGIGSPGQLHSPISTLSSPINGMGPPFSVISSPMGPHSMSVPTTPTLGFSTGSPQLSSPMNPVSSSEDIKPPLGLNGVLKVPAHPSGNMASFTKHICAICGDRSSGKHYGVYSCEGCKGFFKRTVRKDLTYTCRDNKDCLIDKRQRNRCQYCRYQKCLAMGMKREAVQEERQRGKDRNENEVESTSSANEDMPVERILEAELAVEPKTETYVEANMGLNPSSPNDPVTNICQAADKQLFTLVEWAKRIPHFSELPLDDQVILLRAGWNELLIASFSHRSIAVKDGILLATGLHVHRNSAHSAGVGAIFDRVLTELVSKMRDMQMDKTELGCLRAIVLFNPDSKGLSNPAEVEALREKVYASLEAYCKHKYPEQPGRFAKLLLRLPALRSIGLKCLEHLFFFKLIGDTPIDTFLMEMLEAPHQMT
Experimental: To determine whether a RXR agonist can mediate its effects via RXRα receptor homodimers, RXRβ receptor homodimers, RXRγ receptor homodimers, or any combination thereof, or the corresponding RAR/RXR heterodimers, receptor-mediated transactivation assays were performed. For transactivation assays assessing RXR homodimer signaling, CV-1 cells were transfected with 1) an expression construct including a full length RXRα, RXRβ, or RXRγ; and 2) a rCRBPII/RXRE-tk-Luc reporter construct that included RXR homodimer-specific RXRE/DR1 responsive element linked to a luciferase gene. For transactivation assays assessing RAR/RXR heterodimer signaling, CV-1 cells were transfected with 1) an expression construct comprising a fusion protein including an estrogen receptor (ER) DNA binding domain linked to the ligand binding domain of RARα, RARβ, or RARγ and 2) a ERE-tk-Luc reporter construct that included an estrogen receptor responsive element linked to a luciferase gene. […] Data are mean values±SE from five independent experiments.

[4] = test system: oligodendrocyte precursor cells (OPCs); assay: Oligodendrocyte precursor cell differentiation (EGFP expression), Example 4; type: cell-based, mouse
Text: OPCs were generated from a neurosphere culture of E14.5 PLP-EGFP (on C57BL/6J background) mouse brains. […] The EGFP expressing cells were quantified with Cellomics Neuronal Profiling Algorithm.
The EGFP expressing cells in controls and all compounds were quantified with Cellomics Neuronal Profiling Algorithm.

[5] = test system: embryonic stem cells (ES); assay: Myogenic conversion of embryonic stem cells (embryoid bodies); type: cell-based; details: embryoid bodies without DMSO, approximately 1 nM to about 1 μM; present-tense example
Text: To test the potency of RXRs on myogenic conversion of embryonic stem cells (ES), embryoid bodies are formed without DMSO. […] Myoblasts are examined through microscopy and the number of myocytes counted.

[6] = test system: murine skeletal muscle myoblasts and primary myoblasts; assay: Myoblast differentiation; type: cell-based; details: about 10 nM to about 1 μM; present-tense example
Experimental: In order to determine and compare the efficacy of IRX4204 and IRX4204+thyroxine in myoblast differentiation, murine skeletal muscle myoblasts and primary myoblasts are cultured. Myogenic differentiation is initiated when cells are approximately 60-80% confluent, with the cells being differentiated into cell types, such as myotubes.

[7] = test system: mouse model of non-immune mediated demyelination; assay: 6-week cuprizone plus rapamycin demyelination model, corpus callosum histology, Example 7; type: in vivo, C57BL/6J mice; details: IRX4204 10 mg/kg PO, T4 20 ng/g SQ, daily for 6 weeks during CR
Text: (§1) Animals (8 week-old male C57BL/6J mice) were subjected to cuprizone diet plus rapamycin injections (CR) for 6 weeks to induce demyelination. […] All animals were sacrificed after 6 weeks of CR to evaluate axonal integrity and microglial/macrophage activity in the white matter (corpus callosum, CC).
The floating brain sections were immunostained with SMI-32 to visualize and quantify axonal ovoids in the CC.
The floating brain sections were immunostained with lba-1 to visualize and quantify microglia/macrophages in CC.

[8] = Terminal T4 levels, mortality and body weight in the demyelination study, Example 7; details: 6 weeks treatment during CR
Text: as §1
A total of 50 animals were included in the study, where 43 animals received CR demyelination for 6 weeks. During demyelination, a subset (n=7) of animals were kept on normal diet to serve as naïve age-matched controls.

[9] = test system: Pluripotent P19 cells; assay: Myogenic differentiation of pluripotent P19 cells; type: cell-based; details: approximately 1 nM to about 1 μM, 1% DMSO; present-tense example
Experimental: Cells fixed to cover slips are then incubated with primary antibodies for skeletal muscle markers and then labeled with secondary antibodies. Microscopy analysis is performed and the number of skeletal myocytes quantified.

## N[C@@H](Cc1cc(I)c(Oc2ccc(O)c(I)c2)c(I)c1)C(=O)O [Compound T3, triiodothyronine, reference compound]
[1]
  production of EGFP+ oligodendrocytes: clear dose-responses in oligodendrocyte production

## CC(/C=C/[C@@H]1C[C@]1(C)c1ccc2c(c1)C(C)(C)CCC2(C)C)=C\C(=O)O [IRX4204, 3,7-dimethyl-6(S),7(S)-methano,7-[1,1,4,4-tetramethyl-1,2,3,4-tetrahydronaphth-7-yl]2(E),4(E) heptadienoic acid]
[1]
  production of EGFP+ oligodendrocytes: clear dose-responses in oligodendrocyte production
[2]
  inhibition of the increase in cardiac mass and wall thickness: greater inhibition of the increase in cardiac mass and wall thickness as compared to bexarotene-treated animals
[2]; SHRs at 16 weeks of age
  RXRα expression in cardiac muscle tissue (immunoblot): up-regulated more
  inhibition of cardiomyocyte cross-sectional area increases: greater inhibition of cardiomyocyte cross-sectional area increases than treatment with bexarotene
[3]
  potency in activating RXR receptors rather than RAR receptors: > 1,000 fold
[4]; OPC culture
  total cell number and pyknotic cells compared to controls: did not show any differences
[4]; OPCs from E14.5 PLP-EGFP mouse brains
  OPC differentiation into oligodendrocytes (EGFP positive cells) compared to negative control (DMSO): significant increase in OPC differentiation into oligodendrocytes; also recorded: dose dependent increase in the number of the EGFP positive cells
[5]
  potency at increasing myogenic differentiation (number of myocytes): more potent at increasing differentiation than treatment with retinoic acid, bexarotene, or vehicle alone
[6]
  myoblast differentiation (numbers of microfibers, differentiated cells): increased numbers of microfibers as compared to cells treated with thyroxine or vehicle alone
[7]
  Iba1 staining (microglia/macrophages) in CC compared to vehicle: no difference
  number of SMI32 stained axonal ovoids in CC compared to Vehicle: trend towards decreased number of axonal ovoids but was not statistically different from the Vehicle
[8]
  terminal body weights vs vehicle group: no significant difference
[9]
  number of myogenically differentiated cells (skeletal myocytes): higher number of myogenically differentiated cells as compared to cells treated with retinoic acid, bexarotene, or vehicle alone

## C=C(c1ccc(C(=O)O)cc1)c1cc2c(cc1C)C(C)(C)CCC2(C)C [bexarotene, 4-[1-(3,5,5,8,8-pentamethyl-6,7-dihydronaphthalen-2-yl)ethenyl]benzoic acid, reference compound]
[2]
  inhibition of the increase in cardiac mass and wall thickness: inhibition of the increase in cardiac mass and wall thickness as compared to vehicle-only treated SHRs
[2]; SHRs at 16 weeks of age
  ratio of left ventricle weight to body weight: significantly lower ratio of left ventricle weight to body weight as compared to vehicle-only treated SHRs
